System: HIV-infected subjects
Test: Safety and tolerability (TEAEs, ECG, laboratory) after repeated oral administration, phase 2a study
Assay type: in vivo, human
Method: Participants were assigned to one of eight groups; each group (with one exception) included eight subjects receiving either ABX464 (n = 6) or the corresponding placebo (n = 2) according to a randomization code. […] In the present study with HIV-infected subjects, the first dose administered was 25 mg, given once or 3 times a day over a 2- to 3-week period. This initial dose was therefore considered safe for assessment of the safety and tolerability of ABX464 after repeated oral administrations in subjects infected by HIV and determination of the potential effect on the HIV viral load.
The final dosing protocol for each of the eight groups was as follows: group 1, 25 mg every 3 days for 2 to 3 weeks under fasted conditions; group 2, 25 mg once a day (q.d.) for 2 to 3 weeks under fasted conditions; group 3, 50 mg once a day for 2 to 3 weeks under fasted conditions; group 4, 50 mg 3 times a day (t.i.d.) for 4 weeks under fed conditions; group 5, 75 mg once a day for 2 weeks under fed conditions; group 6, 100 mg once a day for 2 to 3 weeks under fasted conditions; group 7, 150 mg every 3 days for 2 to 3 weeks under fed conditions; and group 8, 150 mg once a day for 2 weeks under fed conditions. Per the study protocol, the treatment period was defined as 2 weeks. […] The decision to proceed to the next highest dose was determined by the data and safety monitoring board after review of the laboratory safety data, vital signs, ECGs, and adverse event reports from the group receiving the current dose after 2 weeks of treatment.
Subjects were hospitalized from the day prior to the first dose to at least the morning of day 2. They were orally dosed with 25-mg capsules of ABX464 with 240 ml water under fed or fasted conditions. According to the group, subjects were dosed with 1, 2, 3, 4, or 6 capsules to deliver 25 mg, 50 mg, 75 mg, 100 mg, or 150 mg product, respectively, or the same number of placebo capsules.
Safety assessments and laboratory tests were carried out according to the schedules described in Table S4 for groups dosed every day, every 3 days, and 3 times a day. Follow-up visits were scheduled for 7 days after the last dose and subsequently once every week in order to assess the elimination of the main ABX464 metabolite and to assess the viral load. Follow-up visits were terminated when the virus load was within 0.5 log of the baseline value or after 3 follow-up visits, whichever came first. Prior to the statistical analyses, AEs were coded using the Medical Dictionary for Regulatory Activities (MedDRA dictionary; last available version) in order to be tabulated by system organ class (SOC) and preferred term (PT). The AEs were analyzed according to the treatment emergence phase from the first study drug administration on day 1 up to 48 h after the last study drug administration. The number and percentage of subjects with at least one TEAE were tabulated by SOC and PT for each group and dose. The number of occurrences of TEAEs was also analyzed in the same way by SOC and PT for each group and dose, by grade of severity for each group and dose, and by level of causality to the study drug for each group and dose.

[1] = Group 2 (n = 6), 25 mg q.d., fasted, Moderate
[2] = Group 3 (n = 7), 50 mg q.d., fasted, Mild
[3] = Group 3 (n = 7), 50 mg q.d., fasted, Moderate
[4] = Group 4 (n = 7), 50 mg t.i.d., fed, Mild
[5] = Group 4 (n = 7), 50 mg t.i.d., fed, Moderate

FC(F)(F)Oc1ccc(Nc2ccc3cccc(Cl)c3n2)cc1 [ABX464]
Subjects experiencing at least one TEAE: Total [1]: 0 (0.0) No. (%)
Subjects experiencing at least one TEAE: Upper abdominal pain [1]: 0 (0.0) No. (%)
Subjects experiencing at least one TEAE: Vomiting [1]: 0 (0.0) No. (%)
Subjects experiencing at least one TEAE: Abdominal pain [2]: 0 (0.0) No. (%)
Subjects experiencing at least one TEAE: Arthralgia [2]: 1 (14.3) No. (%)
Subjects experiencing at least one TEAE: Back pain [2]: 0 (0.0) No. (%)
Subjects experiencing at least one TEAE: Diarrhea [2]: 0 (0.0) No. (%)
Subjects experiencing at least one TEAE: Flank pain [2]: 0 (0.0) No. (%)
Subjects experiencing at least one TEAE: Gastrointestinal disorders [2]: 1 (14.3) No. (%)
Subjects experiencing at least one TEAE: Headache [2]: 1 (14.3) No. (%)
Subjects experiencing at least one TEAE: Injury, poisoning, and procedural complications [2]: 0 (0.0) No. (%)
Subjects experiencing at least one TEAE: Musculoskeletal and connective tissue disorders [2]: 1 (14.3) No. (%)
Subjects experiencing at least one TEAE: Nausea [2]: 1 (14.3) No. (%)
Subjects experiencing at least one TEAE: Neck pain [2]: 0 (0.0) No. (%)
Subjects experiencing at least one TEAE: Nervous system disorders [2]: 1 (14.3) No. (%)
Subjects experiencing at least one TEAE: Pain in extremity [2]: 0 (0.0) No. (%)
Subjects experiencing at least one TEAE: Sciatica, back pain [2]: 0 (0.0) No. (%)
Subjects experiencing at least one TEAE: Skin abrasion [2]: 0 (0.0) No. (%)
Subjects experiencing at least one TEAE: Total [2]: 2 (28.6) No. (%)
Subjects experiencing at least one TEAE: Upper abdominal pain [2]: 0 (0.0) No. (%)
Subjects experiencing at least one TEAE: Vomiting [2]: 1 (14.3) No. (%)
Subjects experiencing at least one TEAE: Abdominal pain [3]: 0 (0.0) No. (%)
Subjects experiencing at least one TEAE: Arthralgia [3]: 0 (0.0) No. (%)
Subjects experiencing at least one TEAE: Back pain [3]: 0 (0.0) No. (%)
Subjects experiencing at least one TEAE: Diarrhea [3]: 0 (0.0) No. (%)
Subjects experiencing at least one TEAE: Flank pain [3]: 0 (0.0) No. (%)
Subjects experiencing at least one TEAE: Headache [3]: 1 (14.3) No. (%)
Subjects experiencing at least one TEAE: Injury, poisoning, and procedural complications [3]: 0 (0.0) No. (%)
Subjects experiencing at least one TEAE: Musculoskeletal and connective tissue disorders [3]: 0 (0.0) No. (%)
Subjects experiencing at least one TEAE: Nausea [3]: 0 (0.0) No. (%)
Subjects experiencing at least one TEAE: Neck pain [3]: 0 (0.0) No. (%)
Subjects experiencing at least one TEAE: Nervous system disorders [3]: 1 (14.3) No. (%)
Subjects experiencing at least one TEAE: Pain in extremity [3]: 0 (0.0) No. (%)
Subjects experiencing at least one TEAE: Sciatica, back pain [3]: 0 (0.0) No. (%)
Subjects experiencing at least one TEAE: Skin abrasion [3]: 0 (0.0) No. (%)
Subjects experiencing at least one TEAE: Total [3]: 1 (14.3) No. (%)
Subjects experiencing at least one TEAE: Upper abdominal pain [3]: 0 (0.0) No. (%)
Subjects experiencing at least one TEAE: Vomiting [3]: 0 (0.0) No. (%)
Subjects experiencing at least one TEAE: Abdominal pain [4]: 0 (0.0) No. (%)
Subjects experiencing at least one TEAE: Arthralgia [4]: 1 (14.3) No. (%)
Subjects experiencing at least one TEAE: Back pain [4]: 2 (28.6) No. (%)
Subjects experiencing at least one TEAE: Diarrhea [4]: 0 (0.0) No. (%)
Subjects experiencing at least one TEAE: Flank pain [4]: 0 (0.0) No. (%)
Subjects experiencing at least one TEAE: Gastrointestinal disorders [4]: 3 (42.9) No. (%)
Subjects experiencing at least one TEAE: Headache [4]: 2 (28.6) No. (%)
Subjects experiencing at least one TEAE: Injury, poisoning, and procedural complications [4]: 0 (0.0) No. (%)
Subjects experiencing at least one TEAE: Musculoskeletal and connective tissue disorders [4]: 3 (42.9) No. (%)
Subjects experiencing at least one TEAE: Nausea [4]: 0 (0.0) No. (%)
Subjects experiencing at least one TEAE: Neck pain [4]: 1 (14.3) No. (%)
Subjects experiencing at least one TEAE: Nervous system disorders [4]: 2 (28.6) No. (%)
Subjects experiencing at least one TEAE: Pain in extremity [4]: 1 (14.3) No. (%)
Subjects experiencing at least one TEAE: Sciatica, back pain [4]: 0 (0.0) No. (%)
Subjects experiencing at least one TEAE: Skin abrasion [4]: 0 (0.0) No. (%)
Subjects experiencing at least one TEAE: Total [4]: 7 (100.0) No. (%)
Subjects experiencing at least one TEAE: Upper abdominal pain [4]: 2 (28.6) No. (%)
Subjects experiencing at least one TEAE: Vomiting [4]: 1 (14.3) No. (%)
Subjects experiencing at least one TEAE: Abdominal pain [5]: 0 (0.0) No. (%)
Subjects experiencing at least one TEAE: Arthralgia [5]: 0 (0.0) No. (%)
Subjects experiencing at least one TEAE: Back pain [5]: 0 (0.0) No. (%)
Subjects experiencing at least one TEAE: Diarrhea [5]: 0 (0.0) No. (%)
Subjects experiencing at least one TEAE: Flank pain [5]: 0 (0.0) No. (%)
Subjects experiencing at least one TEAE: Gastrointestinal disorders [5]: 1 (14.3) No. (%)
Subjects experiencing at least one TEAE: Headache [5]: 0 (0.0) No. (%)
Subjects experiencing at least one TEAE: Injury, poisoning, and procedural complications [5]: 0 (0.0) No. (%)
Subjects experiencing at least one TEAE: Musculoskeletal and connective tissue disorders [5]: 0 (0.0) No. (%)
Subjects experiencing at least one TEAE: Nausea [5]: 0 (0.0) No. (%)
Subjects experiencing at least one TEAE: Neck pain [5]: 0 (0.0) No. (%)
Subjects experiencing at least one TEAE: Nervous system disorders [5]: 0 (0.0) No. (%)
Subjects experiencing at least one TEAE: Pain in extremity [5]: 0 (0.0) No. (%)
Subjects experiencing at least one TEAE: Sciatica, back pain [5]: 0 (0.0) No. (%)
Subjects experiencing at least one TEAE: Skin abrasion [5]: 0 (0.0) No. (%)
Subjects experiencing at least one TEAE: Total [5]: 1 (14.3) No. (%)
Subjects experiencing at least one TEAE: Upper abdominal pain [5]: 1 (14.3) No. (%)
Subjects experiencing at least one TEAE: Vomiting [5]: 0 (0.0) No. (%)
Subjects experiencing at least one TEAE: Abdominal pain (Group 5 (n = 6), 75 mg q.d., fed, Mild): 0 (0.0) No. (%)

Source: article PMC5487684, “Safety, Pharmacokinetics, and Antiviral Activity of a Novel HIV Antiviral, ABX464, in Treatment-Naive HIV-Infected Subjects in a Phase 2 Randomized, Controlled Study” (Antimicrobial Agents and Chemotherapy, 2017)
